Laboratory results: patent publication US7566712B2, “Biaryl piperazinyl-pyridine analogues” (Neurogen Corporation, priority 2003, dated 2009)

molecular target: T1, human capsaicin receptor (Homo sapiens, UniProt Q8NER1); experiment: Calcium mobilization assay, determination of antagonist activity (Example 6); type: cell-based; conditions: Table II; determined as described in Example 6 (antagonist activity); "*" = 1 micromolar or less
T1 construct: pBK-CMV expression construct encoding the full length human capsaicin receptor; expressed in transfected cells
T1 sequence (Q8NER1 whole entry): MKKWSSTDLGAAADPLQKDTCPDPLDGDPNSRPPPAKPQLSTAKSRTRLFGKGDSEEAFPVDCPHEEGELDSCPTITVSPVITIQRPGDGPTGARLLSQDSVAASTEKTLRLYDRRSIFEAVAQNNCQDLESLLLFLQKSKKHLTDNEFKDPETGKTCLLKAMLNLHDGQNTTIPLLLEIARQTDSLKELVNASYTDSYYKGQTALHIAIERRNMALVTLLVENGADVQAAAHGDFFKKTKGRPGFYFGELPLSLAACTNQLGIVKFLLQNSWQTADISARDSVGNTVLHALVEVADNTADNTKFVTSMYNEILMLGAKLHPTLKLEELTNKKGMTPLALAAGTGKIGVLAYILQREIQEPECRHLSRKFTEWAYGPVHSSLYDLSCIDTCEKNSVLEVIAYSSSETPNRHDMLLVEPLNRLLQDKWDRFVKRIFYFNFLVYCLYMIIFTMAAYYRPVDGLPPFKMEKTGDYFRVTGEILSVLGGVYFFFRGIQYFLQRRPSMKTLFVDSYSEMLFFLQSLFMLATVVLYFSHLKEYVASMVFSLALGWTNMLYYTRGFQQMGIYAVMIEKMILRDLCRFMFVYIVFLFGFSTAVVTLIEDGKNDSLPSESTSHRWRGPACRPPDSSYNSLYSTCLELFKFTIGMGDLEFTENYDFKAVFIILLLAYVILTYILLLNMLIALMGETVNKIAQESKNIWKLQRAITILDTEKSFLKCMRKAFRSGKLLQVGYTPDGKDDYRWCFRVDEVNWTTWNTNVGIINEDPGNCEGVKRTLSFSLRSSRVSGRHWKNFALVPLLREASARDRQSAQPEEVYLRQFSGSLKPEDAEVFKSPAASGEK
Outline: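 HEK293 clonal lines stably expressing full-length human capsaicin receptor, loaded with Fluo-3 AM in KRH buffer pH 7.4, 1–2 h at 37 °C. Compounds (1–5 μM final) preincubated 0.5–6 h at room temperature, then capsaicin at its EC50 added. FLIPR/Fluoroskan calcium signal; IC50 as 50% decrease of capsaicin response.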

IC50, ≤ 1 µM:
O[C@H]1CCN(c2nc(-c3ccc(F)c(Cl)c3)cc(N3CCN(c4ncccc4C(F)(F)F)CC3)n2)C1 [Example 772, (3S)-1-(4-(3-chloro-4-fluorophenyl)-6-{4-[3-(trifluoromethyl)pyridin-2-yl]piperazin-1-yl}pyrimidin-2-yl)pyrrolidin-3-oI]
OC1CN(c2nc(-c3ccc(F)c(Cl)c3)cc(N3CCN(c4ncccc4C(F)(F)F)CC3)n2)C1 [Example 774, 1-(4-(3-chloro-4-fluorophenyl)-6-{4-[3-(trifluoromethyl)pyridin-2-yl]piperazin-1-yl}pyrimidin-2-yl)azetidin-3-ol]
Fc1ccc(-c2cc(N3CCN(c4ncccc4C(F)(F)F)CC3)nc(N3C[C@H]4C[C@@H]3CN4)n2)cc1Cl [Example 775, (1R,4R)-2-(4-(3-chloro-4-fluorophenyl)-6-{4-[3-(trifluoromethyl)pyridin-2-yl]piperazin-1-yl}pyrimidin-2-yl)-2,5-diazabicyclo[2.2.1]heptane]
COC1CN(c2nc(-c3ccc(F)c(Cl)c3)cc(N3CCN(c4ncccc4C(F)(F)F)CC3)n2)C1 [Example 776, 4-(3-chloro-4-fluorophenyl)-2-(3-methoxyazetidin-1-yl)-6-{4-[3-(trifluoromethyl)pyridin-2-yl]piperazin-1-yl}pyrimidine]
CCCN1C[C@H]2C[C@@H]1CN2c1nc(-c2ccc(F)c(Cl)c2)cc(N2CCN(c3ncccc3C(F)(F)F)CC2)n1 [Example 777, (1R,4R)-2-(4-(3-chloro-4-fluorophenyl)-6-{4-[3-(trifluoromethyl)pyridin-2-yl]piperazin-1-yl}pyrimidin-2-yl)-5-propyl-2,5-diazabicyclo[2.2.1]heptane]
CC1(O)CN(c2nc(-c3ccc(F)c(Cl)c3)cc(N3CCN(c4ncccc4C(F)(F)F)CC3)n2)C1 [Example 778, 1-(4-(3-chloro-4-fluorophenyl)-6-{4-[3-(trifluoromethyl)pyridin-2-yl]piperazin-1-yl}pyrimidin-2-yl)-3-methylazetidin-3-oI]
CCCN1CCN(c2nc(-c3ccc(F)c(Cl)c3)cc(N3CCN(c4ncccc4Cl)C[C@H]3C)n2)CC1 [Example 779, 4-(3-chloro-4-fluorophenyl)-6-[(2R)-4-(3-chloropyridin-2-yl)-2-methylpiperazin-1-yl]-2-(4-propylpiperazin-1-yl)pyrimidine]
CC1CCN1c1nc(-c2ccc(F)c(Cl)c2)cc(N2CCN(c3ncccc3Cl)C[C@H]2C)n1 (stereo partly drawn) [Example 780, 4-(3-ohloro-4-fluorophenyi)-6-[(2R)-4-(3-chloropyridin-2-yl)-2-methylpiperazin-1-yl]-2-(2-methylazetidin-1-yl)pyrimidine]
CC1CCN1c1nc(-c2ccc(F)c(Cl)c2)cc(N2CCN(c3ncccc3C(F)(F)F)C[C@H]2C)n1 (stereo partly drawn) [Example 781, 4-(3-chloro-4-fluorophenyl)-2-(2-methylazetidin-1-yl)-6-{(2R)-2-methyl-4-[3-(trifluoromethyl)pyridin-2-yl]piperazin-1-yl}pyrimidine]
C[C@@H]1CN(c2ncccc2C(F)(F)F)CCN1c1cc(-c2ccc(F)cc2)nc(N2CCCC2)n1 [Example 782, 4-(4-fluorophenyl)-6-{(2R)-2-methyl-4-[3-(trifluoromethyl)pyridin-2-yl]piperazin-1-yl}-2-pyrrolidin-1-ylpyrirnidine]
CC1CCCN1c1nc(-c2ccc(F)cc2)cc(N2CCN(c3ncccc3C(F)(F)F)C[C@H]2C)n1 (stereo partly drawn) [Example 783, 4-(4-fluorophenyl)-2-(2-methylpyrrolidin-1-yl)-6-{(2R)-2-methyl-4-[3-(trifluoromethyl)pyridin-2-yl]piperazin-1-yl}pyrimidine]
C[C@@H]1CN(c2ncccc2C(F)(F)F)CCN1c1cc(-c2ccc(F)cc2)nc(N2CCCCC2)n1 [Example 784, 4-(4-fluorophenyl)-6-{(2R)-2-methyl-4-[3-(trifluoromethyl)pyridin-2-yl]piperazin-1-yl}-2-piperidin-1-ylpyrimidine]
Cc1cc(-c2cc(N3CCN(c4ncccc4Cl)C[C@H]3C)nc(N3CCC3C)n2)ccc1F (stereo partly drawn) [Example 785, 4-[(2R)-4-(3-chloropyridin-2-yl)-2-methylpiperazin-1-yl]-6-(4-fluoro-3-methylphenyl)-2-(2-methylazetidin-1-yl)pyrimidine]
Cc1cc(-c2cc(N3CCN(c4ncccc4C(F)(F)F)C[C@H]3C)nc(N3CCC3C)n2)ccc1F (stereo partly drawn) [Example 786, 4-(4-fluoro-3-methyiphenyl)-2-(2-methylazetidin-1-yl)-6-{(2R)-2-methyl-4-[3-(trifluoromethyl)pyridin-2-yl]piperazin-1-yl}pyrimidine]
CCCN1CCN(c2nc(-c3ccc(F)c(C)c3)cc(N3CCN(c4ncccc4C(F)(F)F)C[C@H]3C)n2)CC1 [Example 787, 4-(4-fluoro-3-methylphenyl)-6-{(2R)-2-methyl-4-[3-(trifluoromethyl)pyridin-2-yl]piperazin-1-yl}-2-(4-propylpiperazin-1-yl)pyrimidine]
CCCN1CCN(c2nc(-c3ccc(F)c(F)c3)cc(N3CCN(c4ncccc4Cl)C[C@H]3C)n2)CC1 [Example 788, 4-[(2R)-4-(3-chloropyridin-2-yl)-2-methylpiperazin-1-yl]-6-(3,4-difluorophenyl)-2-(4-propylpiperazin-1-yl)pyrimidine]
CN(C)C1CN(c2nc(-c3ccc(F)c(Cl)c3)cc(N3CCN(c4ncccc4C(F)(F)F)CC3)n2)C1 [Example 789, 1-(4-(3-chloro-4-fluorophenyl)-6-{4-[3-(trifluoromethyl)pyridin-2-yl]piperazin-1-yl}pyrimidin-2-yl)-N,N-dimethylazetidin-3-amine]
CCN(CC)C1CN(c2nc(-c3ccc(F)c(Cl)c3)cc(N3CCN(c4ncccc4C(F)(F)F)CC3)n2)C1 [Example 790, 1-(4-(3-chloro-4-fluorophenyl)-6-{4-[3-(trifluoromethyl)pyridin-2-yl]piperazin-1-yl}pyrimidin-2-yl)-N,N-diethylazetidin-3-amine]
C[C@@H]1CN(c2ncccc2C(F)(F)F)CCN1c1cc(-c2ccc(F)c(F)c2)nc(N2CCCC2)n1 [Example 791, 4-(3,4-difluorophenyl)-6-{(2R)-2-methyl-4-[3-(trifluoromethyl)pyridin-2-yl]piperazin-1-yl}-2-pyrrolidin-1-ylpyrimidine]
CC1CCCN1c1nc(-c2ccc(F)c(F)c2)cc(N2CCN(c3ncccc3C(F)(F)F)C[C@H]2C)n1 (stereo partly drawn) [Example 792, 4-(3,4-difluorophenyl)-2-(2-methylpyrrolidin-1-yl)-6-{(2R)-2-methyl-4-[3-(trifluoromethyl)pyridin-2-yl]piperazin-1-yl}pyrimidine]
C[C@@H]1CN(c2ncccc2C(F)(F)F)CCN1c1cc(-c2ccc(F)c(F)c2)nc(N2CCCCC2)n1 [Example 793, 4-(3,4-difluorophenyl)-6-{(2R)-2-methyl-4-[3-(trifluoromethyl)pyridin-2-yl]piperazin-1-yl}-2-piperidin-1-ylpyrimidine]
Cc1cc(-c2cc(N3CCN(c4ncccc4C(F)(F)F)C[C@H]3C)nc(N3CCC3(C)C)n2)ccc1F [Example 794, 2-(2,2-dimethylazetidin-1-yl)-4-(4-fluoro-3-methylphenyl)-6-{(2R)-2-methyl-4-[3-(trifluoromethyl)pyridin-2-yl]piperazin-1-yl}pyrimidine]
Cc1cc(-c2cc(N3CCN(c4ncccc4C(F)(F)F)CC3)nc(N(C)C(C)CO)n2)ccc1F (stereo not drawn) [Example 795]
CC(C)c1cc(-c2cc(N3CCN(c4ncccc4C(F)(F)F)CC3)nc(N3CCCC3C)n2)ccn1 (stereo not drawn) [Example 796, 4-(2-isopropylpyridin-4-yl)-2-(2-methylpyrrolidin-1-yl)-6-{4-[3-(trifluoromethyl)pyridin-2-yl]piperazin-1-yl}pyrimidine]
CCOC(=O)C1CCN(c2nc(-c3ccc(F)c(Cl)c3)cc(N3CCN(c4ncccc4C(F)(F)F)CC3)n2)CC1 [Example 797, ethyl 1-(4-(3-chloro-4-fluorophenyl)-6-{4-[3-(trifluoromethyl)pyridin-2-yl]piperazin-1-yl}pyrimidin-2-yl)piperidine-4-carboxylate]

same assay, conditions: determined as described in Example 6 (calcium mobilization, antagonist activity); Table II

IC50, ≤ 1 µM:
C[C@@H]1CN(c2ncccc2Cl)CCN1c1cc(-c2ccc(F)c(F)c2)nc(N2CCCC2)n1 [Example 767, 4-[(2R)-4-(3-chloropyridin-2-yl)-2-methylpiperazin-1-yl]-6-(3,4-difluorophenyl)-2-pyrrolidin-1-ylpyrimidine]
CC1CCCN1c1nc(-c2ccc(F)c(F)c2)cc(N2CCN(c3ncccc3Cl)C[C@H]2C)n1 (stereo partly drawn) [Example 768, 4-[(2R)-4-(3-chloropyridin-2-yl)-2-methylpiperazin-1-yl]-6-(3,4-difluorophenyl)-2-(2-methylpyrrolidin-1-yl)pyrimidine]
C[C@@H]1CN(c2ncccc2Cl)CCN1c1cc(-c2ccc(F)c(F)c2)nc(N2CCCCC2)n1 [Example 769, 4-{(2R)-4-(3-chloropyridin-2-yl)-2-methylpiperazin-1-yl]-6-(3,4-difluorophenyl)-2-piperidin-1-ylpyrimidine]
Cc1cc(-c2cc(N3CCN(c4ncccc4C(F)(F)F)C[C@H]3C)nc(N3CCCCC3C)n2)ccc1F (stereo partly drawn) [Example 770, 4-(4-fluoro-3-methylphenyl)-2-(2-methylpiperidin-1-yl)-6-{(2R)-2-methyl-4-[3-(trifluoromethyl)pyridin-2-yl]piperazin-1-yl}pyrimidine]
CC1CCCCN1c1nc(-c2ccc(F)c(F)c2)cc(N2CCN(c3ncccc3Cl)C[C@H]2C)n1 (stereo partly drawn) [Example 771, 4-[(2R)-4-(3-chloropyridin-2-yl)-2-methylpiperazin-1-yl]-6-(3,4-difluorophenyl)-2-(2-methylpiperidin-1-yl)pyrimidine]
